Measured values: patent US8859768B2, “Heteroaryls and uses thereof” (Millennium Pharmaceuticals, Inc., priority 2010, dated 2014)

Target: T1, Human VPS34 (Homo sapiens, UniProt Q8NEB9)
T1 construct: GST (N); host or cells: SF9 insect cells (baculovirus)
Assay: Human VPS34 Enzyme Assay (Adapta TR-FRET)
Assay type: biochemical
Settings: compound at 1.111 μM; read-out: Average VPS34 % INH @ 1.111 μM

T1 sequence (Q8NEB9 whole entry): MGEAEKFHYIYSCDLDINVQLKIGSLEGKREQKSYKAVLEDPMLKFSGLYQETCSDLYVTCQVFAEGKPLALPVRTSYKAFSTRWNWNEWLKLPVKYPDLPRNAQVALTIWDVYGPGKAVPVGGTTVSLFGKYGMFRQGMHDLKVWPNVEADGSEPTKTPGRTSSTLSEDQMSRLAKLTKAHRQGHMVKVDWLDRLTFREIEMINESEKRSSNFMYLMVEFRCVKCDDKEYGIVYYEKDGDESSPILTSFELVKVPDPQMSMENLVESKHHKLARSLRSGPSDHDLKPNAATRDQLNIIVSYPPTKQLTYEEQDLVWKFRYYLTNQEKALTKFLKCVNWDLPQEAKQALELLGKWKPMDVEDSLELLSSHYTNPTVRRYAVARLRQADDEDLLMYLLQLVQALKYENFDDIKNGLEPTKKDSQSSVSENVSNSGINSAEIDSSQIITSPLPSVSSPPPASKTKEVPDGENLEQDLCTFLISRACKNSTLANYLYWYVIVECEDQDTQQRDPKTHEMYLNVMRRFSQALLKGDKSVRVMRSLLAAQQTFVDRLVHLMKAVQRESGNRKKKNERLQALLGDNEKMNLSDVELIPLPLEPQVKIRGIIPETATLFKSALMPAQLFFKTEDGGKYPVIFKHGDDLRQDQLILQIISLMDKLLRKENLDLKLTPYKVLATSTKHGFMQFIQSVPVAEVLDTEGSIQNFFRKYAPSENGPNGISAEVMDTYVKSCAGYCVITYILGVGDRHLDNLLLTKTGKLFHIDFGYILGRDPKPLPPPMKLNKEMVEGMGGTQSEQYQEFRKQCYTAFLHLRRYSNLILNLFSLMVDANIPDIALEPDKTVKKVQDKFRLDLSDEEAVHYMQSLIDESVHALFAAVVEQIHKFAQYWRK

inhibition at 1.111 µM [%] | SMILES
54 | CC(=O)Nc1cc(-c2cc(C(=O)NCCCN3CCCC3)c(-c3ccccc3Cl)o2)c(C)cn1 [Compound I-84, 5-(2-acetamido-5-methylpyridin-4-yl)-2-(2-chlorophenyl)-N-[3-(pyrrolidin-1-yl)propyl]-3-furamide]
135 | CC(=O)Nc1cc(-c2nc(-c3ccccc3Cl)c(-c3cc[nH]n3)o2)c(C)cn1 [Compound I-57, N-{4-[4-(2-chlorophenyl)-5-(1H-pyrazol-3-yl)-1,3-oxazol-2-yl]-5-methylpyridin-2-yl}acetamide]
115 | CC(=O)Nc1cc(-c2nc(N3CCCS3(=O)=O)c(-c3nnc[nH]3)o2)c(C)cn1 [Compound I-50, N-{4-[4-(1,1-dioxidoisothiazolidin-2-yl)-5-(4H-1,2,4-triazol-3-yl)-1,3-oxazol-2-yl]-5-methylpyridin-2-yl}acetamide]
31 | CC(=O)Nc1cc(-c2nc(C(=O)NCc3cccnc3)c(-c3ccccc3Cl)o2)c(C)cn1 [Compound I-47, 2-(2-acetamido-5-methylpyridin-4-yl)-5-(2-chlorophenyl)-N-(pyridin-3-ylmethyl)-1,3-oxazole-4-carboxamide]
87 | Clc1ccccc1-c1oc(-c2ccnc3[nH]ccc23)nc1-c1nnc[nH]1 [Compound I-71, 4-[5-(2-chlorophenyl)-4-(4H-1,2,4-triazol-3-yl)-1,3-oxazol-2-yl]-1H-pyrrolo[2,3-b]pyridine]
125 | CC(=O)Nc1cc(-c2nc(-c3ccccc3Cl)c(-c3nnc[nH]3)o2)c(C)cn1 [Compound I-39, N-{4-[4-(2-chlorophenyl)-5-(4H-1,2,4-triazol-3-yl)-1,3-oxazol-2-yl]-5-methylpyridin-2-yl}acetamide]
89 | CON(C)C(=O)c1cc(-c2cc(NC(C)=O)ncc2C)oc1-c1ccccc1Cl [Compound I-46, 5-(2-acetamido-5-methylpyridin-4-yl)-2-(2-chlorophenyl)-N-methoxy-N-methyl-3-furamide]
39 | O=C(Cc1ccccc1)Nc1cc(-c2nc(-c3nnc[nH]3)c(-c3ccccc3Cl)o2)ccn1 [Compound I-67, N-{4-[5-(2-chlorophenyl)-4-(4H-1,2,4-triazol-3-yl)-1,3-oxazol-2-yl]pyridin-2-yl}-2-phenylacetamide]
116 | COCCNC(=O)c1cc(-c2cc(NC(C)=O)ncc2C)oc1-c1ccccc1Cl [Compound I-29, 5-(2-acetamido-5-methylpyridin-4-yl)-2-(2-chlorophenyl)-N-(2-methoxyethyl)-3-furamide]
114 | CC(=O)Nc1cc(-c2nc(-c3cc[nH]n3)c(-c3ccccc3Cl)o2)c(C)cn1 [Compound I-30, N-{4-[5-(2-chlorophenyl)-4-(1H-pyrazol-3-yl)-1,3-oxazol-2-yl]-5-methylpyridin-2-yl}acetamide]
